Test system: procaspase-6 cleavage in primary hepatocytes
Assay: Procaspase-6 cleavage induced by TNFα and CHX in primary hepatocytes (IB)
Format: cell-based, mice
Conditions: 40 μM pretreatment 1 hr, then 30 μg/ml CHX and 50 ng/ml TNFα 2 hrs
Description: FIGS. 5A-5K. AMPK phosphorylates caspase-6 to inhibit its cleavage and activation. FIG. 5A. […] IB analysis of cell lysates. n=3. Mean±SD. *, P<0.05, two-way ANOVA. FIG. 5B. […] Cell lysates were subject to caspase-6 activity assay. Mean±SD. *, P<0.05. FIG. 5C. Caspase-6 Ser^257 locates within AMPK substrate motif. FIG. 5C. discloses SEQ ID NOS 57-63, respectively, in order of appearance. FIG. 5D. In vitro kinase assay using recombinant caspase-6, and recombinant AMPKα1β1γ1 or AMPKα2β1γ1 active kinase. FIG. 5E. Alignment of caspase-6 sequence. FIG. 5E. discloses SEQ ID NOS 64-67, respectively, in order of appearance. FIG. 5F. HEK293T cells overexpressing caspase-6-myc WT, S^257A, S^257D or S^257E mutant were treated with 10 μg/ml CHX and 25 ng/ml TNFα for 2 hrs. IB analysis of cell lysates. FIGS. 5G-5J. C57BL/6J mice were fed CD-HFD for 6 weeks, followed by intraperitoneally injection of 25 mg/kg A-769662 or vehicle daily for 2 weeks while continuous CD-HI-D. Mice were sacrificed 6 hrs after last injection. FIG. 5G. IB analysis of liver lysates. n=5. FIG. 5H. Liver lysates were subject to caspase-6 activity assay. n=7. FIG. 5I. Liver sections stained as indicated therein (aCasp6 and DAPI); in the merged image sections, the different stains correspond to the grayscale shades as indicated in the single stained images to the left. Scale bar=50 μm. […] Quantification of aCasp6 staining per field in FIG. 5I. n=7. […]

- procaspase-6 cleavage: significantly inhibited
Compound: N#Cc1c(O)c2c(-c3ccc(-c4ccccc4O)cc3)csc2[nH]c1=O [A-769662]
